The values that follow come from US12234288B2, “Immunogenic arginase 2 polypeptides” (IO Biotech ApS, priority 2018, dated 2025).

Assay [1] has as its system PBMCs from healthy donors and cancer patients. Briefly: IFNγ ELISPOT of PBMCs pre-stimulated one week in vitro with peptide and low-dose IL-2. The settings on record: for IFNy ELISPOT response: validation of hotspot region peptides, PBMCs from two healthy donors, FIG. 4. The class given is cell-based, human. The protocol:
For in vitro ELISPOT, PBMCs from cancer patients and healthy donors were pulsed with 20 μM of […] (or with no peptide as a control) and 120 U/ml IL-2 in 24-well plates for 7 days before being used in an ELISPOT assay. The cells were placed in 96-well nitrocellulose ELISPOT plates (MultiScreen MAIP N45; Millipore) pre-coated with IFNγ capture antibody (Mabtech). Arginase peptides added to a final concentration of 5 μM and plates incubated at 37° C. for 14-16 hours. After the incubation the cells were washed off and secondary biotinylated Ab (Mabtech, cat. 3420-{6-1000) was added for 2 hours at room temperature. Unbound secondary antibody was washed off and streptavidin conjugated alkaline phosphatase (AP) (Mabtech, cat. 3310-10) was added for 1 hour at room temperature. Unbound conjugated enzyme was washed off and the assay was developed by adding BCIP/NBT substrate (Mabtech, cat. 3650-10). Developed ELISPOT plates were analyzed on CTL ImmunoSpot S6 Ultimate-V analyzer using Immunospot software v5.1. Responses were reported as the difference between average numbers of spots in wells stimulated with arginase2 and wells without added peptide.
To test whether these peptides could be used to identify Arginase2 responses, PBMCs from 12 healthy donors and one cancer patients were screened for responses in IFNγ ELISPOT. PBMCs were stimulated with Arginase2 peptides and low dose IL-2 for 1 week prior to ELISPOT.
The entire arginase2 protein sequence was divided into overlapping 20-amino-acid-long peptides (with a final peptide of 24 amino acids), generating a library of 34 peptides covering the whole sequence (SEQ ID NOs 1-34)). Each peptide in the library overlapped with the first 10 amino acids of the following peptide. Using this arginase2 peptide library and the IFNγ ELISPOT assay, we next screened PBMCs from 6 healthy donors for spontaneous responses. The PBMCs were stimulated for one week with a pool of 3-4 adjacent 20-mer arginase2 library peptides and low-dose IL-2 (120 U/mL). They were then set up for an IFNγ ELISPOT assay to screen for responses against each 20-mer peptide separately.
PBMCs from two healthy donors were stimulated for one week with a single peptide and low-dose IL-2 (120 U/mL) before IFNy ELISPOTassay to validate the responses observed in the library screen.
PBMCs from […] were stimulated for one week with a single peptide and low-dose IL-2 (120 U/mL) before IFNy ELISPOTassay to validate the responses observed in the library screen. ARG2_1, ARG2_5, ARG2_13, ARG2_18 and ARG2_22 were tested in this validation.
ARG2_1 was used to screen for responses in 8 melanoma patients (AA07-AA31), 4 prostate cancer patients (UR07-27) and 13 healthy donors. PBMCs from each were stimulated for one week with a single peptide and low-dose IL-2 (120 U/mL) before IFNy ELISPOT assay.
PBMCs from healthy donors or cancer patients were stimulated with 10 μM of ARG2-derived peptides in vitro to enhance assay sensitivity. On day 2, IL-2 was added to a total of 120 U/ml IL-2 (Novartis). After 7 days, 4-6×10^5 PBMCs were placed at the bottom of an ELISPOT plate pre-coated with IFNy capture antibody (Mabtech). PBMCs from each donor or patient were set up in triplicates or quadruplicates for peptide (5 μM ARG2-derived peptide) and control stimulations. Cells were incubated in ELISPOT plates in the presence of an antigen for 14-16 hrs after which they were washed off and secondary biotinylated antibody (Mabtech) was added. After two hour incubation the secondary antibody was washed off before addition of streptavidin conjugated alkaline phosphatase (Mabtech) for 1 hr. Next, unbound enzyme was washed off and the assay was developed by adding BCIP/NBT subtrate (Mabtech). Developed ELISPOT plates were analyzed on CTL Immunospot S6 Ultimate-V analyzer with ImmunoSpot software, version 5.1. […]

Assay [2] relates to THP-1 cells. Briefly: ARG1/ARG2 expression by RT-qPCR in THP-1 cells. The class given is cell-based, human. The note with it: 48 hr stimulation, FIG. 17C/17H. As to the method: (§1) Cytokine stimulation with IL-4 (400 U/ml), IL-13 (50 ng/ml), IFNy (100 U/ml) or cytokine cocktail (400 U/ml IL-4, 1000 U/ml GM-CSF and 1000 U/ml TNFa) was done by seeding of 0.5-0.75×10^6 cell/mL medium supplemented with the respective cytokines and 48 hrs of incubation before cells were harvested for various experiments. All cytokines are from Trichem.
(§2) Total RNA was reverse transcribed using the High Capacity cDNA Reverse Transcription Kit (Applied Biosystems). For each reaction, 1000 ng RNA was reverse transcribed. For RT-qPCR, the cDNA was diluted 1:5 and subjected to RT-qPCR analysis using the TaqMan Gene Expression Assay on the Roche Lightcycler 480 Instrument. RT-qPCRs were run in quadruplicates and data was analyzed using the ddCT-method with normalization to expression level of the house keeping gene RPLPO and control sample. For low concentration samples that were not amplified, Ct was set to 40. No-reverse transcriptase controls (cDNA reactions setup without reverse transcriptase) served as controls of specific amplification. A list of primers used in this study is found below.
A set of three siRNA duplexes targeting ARG2 was obtained from Ambion (ARG2 Silencer Select Validated siRNA, ID s1571, s1572, s1573). siRNAs were suspended in nuclease free water to 0.1 nmol stock solutions and stored at −80° C. For ARG2 silencing experiments, THP-1 cells were prepared for electroporation as described above and 10 μl of a working solution of 0.02 nmol siRNA solution was added of each of the three siRNA before transfection as previously described. Immediately after transfection, cells were transferred to pre-warmed medium and incubated for 1 hr. Transfected cells were then split in two and to half of the cells cytokine cocktail (400 U/ml IL-4, 1000 U/ml GM-CSF and 1000 U/ml TNFa) was added. Cells were incubated in medium or medium containing cytokine cocktail for 48 hrs before they were set up in intracellular cytokine staining assay. Cells were pelleted for RNA after 48 hrs for accession of knock down efficiency by RT-qPCR.
A general note: Real-time PCR tracks product formation cycle by cycle.

For a further assay, the system named is C57BL/6 mice. Description: Peptide vaccination of mice followed by murine IFNy ELISPOT of spleen cells. The class given is in vivo, mouse. The note with it: for mIFNy ELISPOT response to the peptide in mice vaccinated with mArg2 P5: FIG. 13; for mIFNy ELISPOT response after vaccination: three C57 mice per peptide vaccinated s.c., 7 days, FIG. 12 / FIG. 20A. An excerpt: 3 mice in each group are vaccinated s.c. with one of the six peptides. 7 days after, the mice are terminated, spleens are homogenised and PBMC are used for mIFNy ELISPOT.
These peptides are used for a vaccination screen (see experimental schematic in FIG. 11), where three C57 mice are vaccinated subcutaneously with one of the 6 peptides. One week later, the mice are sacrificed and the spleens homogenized to obtain PBMC. These are used to set up IFNy ELISPOT to screen for responses against both the peptide used for vaccination and the other predicted epitope peptides with overlapping sequences.
(§3) Dissolved peptides were subsequently emulsified with Montanide™ adjuvant (50ul/mouse) (Seppic Inc.) for an optimal dose of 100 ug total peptide given in a total volume of 100 ul. The emulsified peptide vaccination was injected subcutaneously at the base or the tail or the flank of 12-16 week old C57BL/6 mice with a 27G needle. Control mice were given water and Montanide™ emulsification in a total volume of 100 ul. For therapeutic vaccine studies on tumor inoculated mice, vaccinations were given at day 0 and 7 after tumor inoculation at the flank of the tail and the left flank, respectively. For epitope screening- and validation experiments, a single dose of vaccine was given to mice at the right flank. One week later, mice were sacrificed, and spleens were recovered. Spleens were smashed through a […] filter and red blood cells were lysed using Red Blood Cell Lysis Buffer (Qiagen). Cells were washed 4 times and counted before setup for murine IFNy ELISPOT assay with 8*10^6 cells pr. well.

The test system of assay [3] is Lewis Lung (LL2) tumor cells. Description: Therapeutic vaccination study in Lewis Lung (LL2) tumor inoculated mice. The class given is in vivo. The note with it: LL2 tumors in C57BL/6 mice, vaccinations day 0 and day 7, compared to control, FIG. 20E-G. As to the method: LL2 cells (5*10^5) were resuspended in 100 ul of serum free medium and were injected subcutaneously in the right flank of female C57BL/6 mice. Tumor volumes were measured by digital caliper and the endpoint of tumor study was a tumor reaching the threshold size of 800 mm^3 or due to the formation of ulcers on the tumor.
as §3, with “well. […]” for “well.”

A further assay deals with MONO-MAC-1 cells. Briefly: ARG2 expression by RT-qPCR in MONO-MAC-1 cells. The class given is cell-based, human. The settings on record: 48 hrs incubation, FIG. 18A/B. As to the method: as §1, §2
Assay [4] has as its system THP-1 cells. Briefly: Flow cytometric analysis of HLA-DR expression in THP-1 cells. It is filed as cell-based, human. The settings on record: 48 hrs stimulation, data not shown. The protocol:
HLA-DR expression analysis was performed on cells stimulated for 48 hrs with mock (no cytokines), IFNy (100U/ml) or cytokine cocktail (400U/m1 IL-4, 1000 U/ml GM-CSF and 1000 U/ml TNFa). Briefly, cells were washed and stained with 7-AAD (cat: 51-68981E, BD Bioscience) and FITC-conjugated mouse anti-human HLA-DR, DP, DQ (cat: 5555581, BD Bioscience) or FITC-conjugated mouse IgG1 K isotype ctrl (FC) (cat: 400109, BD Bioscience) for 30 minutes at 4° C. Excess antibody was washed off before cells were analyzed on FACSCanto™ II instrument. HLA-DR expression levels is given as the difference in MFI between MHC Class II stained live cells and isotype control stained live cells.
In general terms: In flow cytometry, cells or beads pass a laser one at a time.

Turning to “FSWIKPCISSASIVYIGLRD (listed as Homo sapiens) [ARG2_18, polypeptide derived from human Arginase2, aa181-200]”, in assay [1], the “IFNy ELISPOT response” value was “strongest and most consistent responses”.

“IL-13: cytokine from Trichem, used at 50 ng/ml [reference compound]”: in the assay on THP-1 cells [2], the “induction of ARG2 expression” value is “did not have much effect”.

For the molecule “LSPPNIVYI (listed as Mus musculus) [mArg2 P5, polypeptide derived from murine Arginase2, aa188-196]”, the “mIFNy ELISPOT response to the peptide in mice vaccinated with mArg2 P5” value (“mIFNy ELISPOT response to the peptide” for short) with C57BL/6 mice (listed as mArg2_188-196) was “strong mIFNy responses”. Besides, the “mIFNy ELISPOT response after vaccination” value in the assay with C57BL/6 mice is “strongest and most prominent responses”.

Turning to “NYDIQYFSMRDIDRLGIQKV (listed as Homo sapiens) [ARG2_21, polypeptide derived from human Arginase2, aa211-230]”, the “IFNy ELISPOT response” value in assay [1] is reported as “stronger response”.

As for “PNIVYIGL (listed as Mus musculus) [mArg2 P3, polypeptide derived from murine Arginase2, aa191-198]”, in the assay on C57BL/6 mice, the “mIFNy ELISPOT response to the peptide” value was “no response or only weak responses”.

“SASIVYIGLRDVDPPEHFIL (listed as Homo sapiens) [ARG2-E18, polypeptide derived from human Arginase2, aa190-209]”: in assay [1] (hotspot peptide screen, PBMCs from 12 healthy donors and one cancer patient, FIG. 2), the “IFNγ ELISPOT response” value was “highest and most consistent response”.

Take “WIKPCLSPPNIVYIGL (listed as Mus musculus) [mArg2 P4, polypeptide derived from murine Arginase2, aa182-197]”: the “mIFNy ELISPOT response to the peptide” value in the assay with C57BL/6 mice (listed as mArg2_182-197) was “strong mIFNy responses”. Besides, the “mIFNy ELISPOT response after vaccination” value with C57BL/6 mice was “Strong immune responses”. Further, the tumor growth entry in assay [3] is on record as “decreased tumor growth”.

B1: IL-4: cytokine from Trichem, used at 400 U/ml (protein, UniProt P05112 25-153, looked up)
Interleukin-4: HKCDITLQEIIKTLNSLTEQKTLCTELTVTDIFAASKNTTEKETFCRAATVLRQFYSHHEKDTRCLGATAQQFHRHKQLIRFLKRLDRNLWGLAGLNSCPVKEANQSTLENFLERLKTIMREKYSKCSS
For B1, the “induction of ARG2 expression” value in the assay on THP-1 cells [2] is recorded as “did not have much effect”.

B2: IFNy: cytokine from Trichem, used at 100 U/ml (protein, UniProt P01579 24-161, looked up)
Interferon gamma: QDPYVKEAENLKKYFNAGHSDVADNGTLFLGILKNWKEESDRKIMQSQIVSFYFKLFKNFKDDQSIQKSVETIKEDMNVKFFNSNKKKRDDFEKLTNYSVTDLNVQRKAIHELIQVMAELSPAAKTGKRKRSQMLFRG
Consider B2, for which, in the assay with THP-1 cells [2], the “induction of ARG2 expression” value is listed as “not ARG2 expression”. Moreover, the ARG2 expression result in the assay on MONO-MAC-1 cells was “did not upregulate ARG2 expression”. Further, the HLA-DR expression entry in the assay with THP-1 cells [4] is on record as “increase HLA-DR expression”.
